From PMC12434071, “Platinum-group metal half-sandwich complexes of 1-(α-D-glucopyranosyl)-4-hetaryl-1,2,3-triazoles: synthesis, solution equilibrium studies, and investigation of their anticancer and antimicrobial activities” (Frontiers in Chemistry, 2025)

Key:
ID8 cells = assay: MTT reduction assay on ID8 cells; assay type: cell-based; conditions: maximal inhibition; 4 h treatment; maximum concentration 100 µM
Experimental: FIGURE 5 The ruthenium, osmium, and iridium complexes of ligands 4a, 4b, and 5a decrease MTT reduction. For MTT assays, 4 × 10^3 A2780 cells, 3 × 10^3 ID8 cells, or 6 × 10^3 human primary fibroblasts were plated into 96-well plates. Cells were treated with the compounds in the concentrations indicated for 4 h. Data are represented as average ± SD, from four biological replicates on A2780, and from three biological replicates on ID8 and human primary fibroblasts. For the datasets of 5a and Os-5a on human primary fibroblasts, the data represent four biological replicates. Individual assays were performed in duplicate. Values were normalized for vehicle-treated cells, and the absorbance for vehicle-treated cells equals 1. Normality was assessed using the D'Agostino-Pearson test. Statistical significance was assessed using a two-way ANOVA test followed by Tukey's post hoc test. For better visibility, normality, transformations, statistical tests, and p values are presented in an MS Excel sheet at https://figshare.com/s/3a0aa60b66f3f746f41e. Color code: black-free ligand (4a,b or 5a), khaki-ruthenium complex (Ru-4a,b), green-iridium complex (Ir-4a,b), blue-osmium complex (Os-4a,b or Os-5a), and red-rhodium complex (Rh-4a,b). An MTT reduction assay measures the activity of mitochondrial complex I and can be used to detect toxicity ([[…] et al., 2016]). The assay was performed in a manner similar to that described by [[…] et al. (2023b)]. Briefly, cells were plated into 96-well plates the day before the assay. Cells were treated with the compounds for 4 h; then, MTT was added to a 0.5 mg/mL final concentration, and cells were incubated at 37°C in a cell incubator for 40-60 min, as a function of the cell line being assessed. The culture medium was removed, the reduced MTT dye was dissolved in dimethylsulfoxide, and plates were measured in a plate photometer (Thermo Scientific Multiscan GO spectrophotometer, Waltham, MA, United States) at 540 nm. […] In calculations, the readings for these wells were considered to 1, and all readings were expressed relative to these values. […]

[1] = pH-potentiometric titration, protonation constants (pKa) of the ligands; assay type: physicochemical; conditions: 0.20 M KCl, 25.0°C; N-heterocyclic ring of the ligand
Experimental: In order to obtain information on the acidbase character of the ligands and on the stoichiometry and stability of the complexes present in aqueous medium, potentiometric titrations were carried out in selected systems. Based on the results, both 3a and 3b, having good enough solubility in water, are capable of releasing one hydrogen ion from the fully protonated forms in the measurable pH range (see Figure 3, “pK”). The calculated pK a values appear in Table 4; these values belong to the N-heterocyclic ring of the ligands. […]. For comparison, the previously prepared β-anomeric pair of 3a, compound 3a-β ([Kacsir et al., 2021]) in Table 4, was also studied.
For solution studies, doubly deionized and ultra-filtered water was obtained from a Milli-Q RG (Millipore) water purification system. pH-potentiometric measurements were carried out at a constant ionic strength of 0.20 M KCl and at 25.0°C. Carbonate-free KOH solutions of known concentrations (ca. 0.2 M) were used as titrant. […]. A Mettler Toledo DL50 titrator equipped with a DG114-SC combined glass electrode was used for the pH-potentiometric measurements. […] The titrations were performed in the pH range of 2.0–11.0 in equilibrium-controlled mode, during which the pH equilibrium was assumed to be reached if a change in the measured potential was less than 0.1 mV within 90 s. […]

[2] = pH-potentiometric titration, stability constants (logβ) of ML complexes; assay type: physicochemical; conditions: [(η^5-Cp*)Rh]^2+; 0.20 M KCl, 25.0°C
Text: […]. […] Comparing the two metal ion containing systems, the complexation with [(η^6-p-cym)Ru]^2+, starts at a more acidic pH, but hydrolytic processes occur already in the physiological pH range due to the higher affinity of the metal ion to hydrolysis. For the [(η^5-Cp*)Rh]^2+, these processes are shifted towards higher pH; […].
For solution studies, doubly deionized and ultra-filtered water was obtained from a Milli-Q RG (Millipore) water purification system. pH-potentiometric measurements were carried out at a constant ionic strength of 0.20 M KCl and at 25.0°C. Carbonate-free KOH solutions of known concentrations (ca. 0.2 M) were used as titrant. […]. A Mettler Toledo DL50 titrator equipped with a DG114-SC combined glass electrode was used for the pH-potentiometric measurements. […] The titrations were performed in the pH range of 2.0–11.0 in equilibrium-controlled mode, during which the pH equilibrium was assumed to be reached if a change in the measured potential was less than 0.1 mV within 90 s. […] The protonation constants of the ligands and the overall stability constants of the complexes, βp,q,r = [MpHqLr]/[M]^p[H]^q[L]^r (where “M” stands for [(η^5-Cp*)Rh(H2O)3]^2+ and “L” represents the completely deprotonated form of the ligand), were calculated with the aid of the SUPERQUAD ([Gans et al., 1985]) and PSEQUAD ([Zékány and Nagypál, 1985]) computer programs, respectively. […]

Structure (SMILES)	ID8 MTT max % (ID8 cells) [%]	pK a [1]	logβ [ML] [2]
O=C(OC[C@H]1O[C@H](n2cc(-c3ccc4ccccc4n3)nn2)[C@H](OC(=O)c2ccccc2)[C@@H](OC(=O)c2ccccc2)[C@@H]1OC(=O)c1ccccc1)c1ccccc1 [Complex 4b, 1-(2’,3’,4’,6’-Tetra-O-benzoyl-α-D-glucopyranosyl)-4-(quinolin-2-yl)-1,2,3-triazole]	0		
OC[C@H]1O[C@H](n2cc(-c3ccccn3)nn2)[C@H](O)[C@@H](O)[C@@H]1O [Complex 3a, 1-(α-D-Glucopyranosyl)-4-(pyridin-2-yl)-1,2,3-triazole]		3.59 (1)	5.50 (4)
CCCCC(=O)OC[C@H]1O[C@H](n2cc(-c3ccccn3)nn2)[C@H](OC(=O)CCCC)[C@@H](OC(=O)CCCC)[C@@H]1OC(=O)CCCC [Complex 5a, 1-(2’,3’,4’,6’-Tetra-O-pentanoyl-α-D-glucopyranosyl)-4-(pyridin-2-yl)-1,2,3-triazole]	15.89		
O=C(OC[C@H]1O[C@H](n2cc(-c3ccccn3)nn2)[C@H](OC(=O)c2ccccc2)[C@@H](OC(=O)c2ccccc2)[C@@H]1OC(=O)c1ccccc1)c1ccccc1 [Complex 4a, 1-(2’,3’,4’,6’-Tetra-O-benzoyl-α-D-glucopyranosyl)-4-(pyridin-2-yl)-1,2,3-triazole]	0		
